In US5672603A, “Apoptosis regulating composition” (Otsuka Pharmaceutical Co., Ltd., priority 1991, dated 1997):
“Also recorded” adds a separate entry of the source.

How the values were obtained:
HL-60 cells [1] = assay: Reactivity of HL-60 cells with anti-CD33 monoclonal antibody My9 (flow cytometry); format: cell-based, human; details: day 27, control 97
Description: The monoclonal antibody My9 (Coulter) capable of specifically reacting with immature granulocytes was dissolved by adding 0.5 ml of distilled water per vial.
HL-60 cells prepared as described above under (1) were cultivated in the same manner as in a). On day 27, the cell concentration was adjusted to 1×10^6 cells/ml and 100 μl of each aliquot was reacted with 10 μl of fluorescein (FITC)-labeled My9, followed by flow cytometry.

HL-60 cells [2] = assay: Induction of differentiation of HL-60 cells (CD11b expression, flow cytometry); format: cell-based, human; set-up: reference not given here; details: 30 μg/ml; 3 days; CD11b fluorescence
Description: HL-60 cells were cultivated in RPMI-1640 medium supplemented with 10% of FCS at 37° C. under 5% CO2, and the cell concentration was adjusted to 5×10^4 cells/ml.
Then, the above-mentioned medium containing 30 μg/ml of each test compound was added to each well of 6-well microplates (Costar), followed by 3 days of incubation at 37° C. under 5% CO2. In a control group, the above medium alone was added and incubation was performed in the same manner. Thereafter, each cultured cell suspension was sampled into an Eppendorf tube and, after staining with 0.2% trypan blue-containing phosphate buffer, viable cells were counted using a hematocytometer.
The above cells were adjusted to 1×10^7 cells/ml. To 100 μl of the cell suspension was added 5 μl of a solution of fluorescein isothiocyanate (FITC)-labeled anti-human CD11b antibody (Mol; Coulter) and the reaction was allowed to proceed on ice in the dark for 30 minutes. Then, cells were washed twice with PBS (phosphate-buffered saline; Nissui Pharmaceutical) containing 0.1% of BSA (bovine serum albumin; Sigma), finally suspended in 500 μl of the BSA-containing PBS and measured for fluorescence intensity by flow cytometry using Profile II (Coulter).

[3] = system: W/BF1 :(NZW×BXSB)F1 mice with spontaneous autoimmune disease; assay: Life-prolonging effect in autoimmune disease mice; format: in vivo
From the text: W/BF1 :(NZW×BXSB)F1 mice are mice with spontaneous autoimmune disease. They are known as an animal model of lupus nephritis accompanied, with high frequency, by hypertension and myocardial infarction [Hang, L. M., et al., J. Exp. Med., 154, 216-221 (1981)]. They develop anti-platelet antibodies with increasing age, showing marked thrombocytopenia, and are used as an animal model of idiopathic thrombocytopenic purpura (ITP) as well [Oyaizu, N., et al., J. Exp. Med. 167, 2017-2077 (1988)]. It has been reported that more than 90% of the model animals die of myocardial infarction or renal failure within 8 months of birth [Ikehara, S., Metabolism and Disease, (Suppl) 26, 169-176 (1989)].
W/BF1 :(NZW×BXSB)F1 mice were used at the age of 14 weeks (purchased from Kiwa Experimental Animal). Groups of 10 mice were used in each experiment.
The mice in respective groups were given a diet (Oriental Yeast), which is usually given to this kind of mice, and water.
Compound 1 (Lot No. 9D87M) was used as suspended in a 0.5% solution of carborymethylcellulose (CMC, Cellogan). Compound 1 was administered to mice by oral garage in doses of 100 and 300 mg/kg body weight/day for 6 weeks from 14 weeks of age to 20 weeks of age according to the 5-day administration and 2-day cessation schedule. As a control, an untreated group was provided. […] Statistic analysis was performed by the generalized Wilcoxon test with respect to the untreated group.
In the figure, the ordinate represents the survival rate (%) and the abscissa represents the age in weeks (14 weeks to 20 weeks).

HL-60 cells [4] = assay: Differentiation of HL-60 cells (Giemsa and esterase staining); format: cell-based, human; details: day 27
Description: (§1) The concentration of HL-60 cells was adjusted to 1×10^5 cells/ml using RPMI-1640 medium (GIBCO) supplemented with 10% of FCS (fetal calf serum; GIBCO).
Giemsa stain solution was prepared by diluting Giemsa reagent (Merck) 50-100 times with phosphate buffer (pH 6.4).
A reagent for esterase staining (Muto Kagaku) was used according to the naphthol AS-D chloroacetate method.
HL-60 cells prepared as described above under (1) were cultivated in the same manner as in a). Cells collected on day 27 were placed on a slide glass and subjected to Giemsa staining, followed by morphological observation under a microscope. […] The results of esterase staining by the naphthol AS-D chloroacetate method indicated differentiation of 70-85% of HL-60 cells into granulocytes.

[5] = system: Human promyelocytic leukemia cells (HL-60); assay: Cancer cell growth inhibition, HL-60 (long-term culture, trypan blue viable count); format: cell-based; details: control 100
From the text: The human promyelocytic leukemia cell line HL-60 is a human leukemia cell line established by Robert Gallo et al. and typical properties thereof are described in the literature [Gallo, R. C. et al., Blood, 54, 713 (1979)]. It is available from the American Type Culture Collection (ATCC) under the accession number ATCC No. CCL-240.
as §1
Test compound 1 was dissolved in acetic acid, followed by dilution with the same medium as used above in (1) and neutralization with 2N NaOH to give final concentrations of 100 μg/ml, 10 μg/ml and 1.0 μg/ml.
a) The test compound solutions prepared as described above under (3) were added to the HL-60 cell suspension prepared as described above under (1) to final concentrations of 10 μg/ml and 1.0 μg/ml. Using 12-well culture plates (Costar), cultivation was conducted in a 5% carbon dioxide gas incubator maintained at 37° C. for 3 to 4 days. The test compound-free medium was used as a control. Thereafter, the cell suspension in each well was sampled and mixed with 0.2% trypan blue-containing phosphate buffer, and unstained viable cells were counted under a microscope. Based on the counting result, the viable cell concentration was readjusted to 1×10^5 cells/ml, and cultivation was continued under the same conditions.

PC12 cells = assay: Effect on PC12 cells (morphology, phase contrast microscope)
Description: PC12 cells subcultured in Dulbecco's modified Eagle's medium (D-MEM) supplemented with 5% heat-inactivated (56° C., 30 minutes) horse serum and 10% fetal calf serum (FCS) were transferred onto collagen-coatedplastic Petri dishes (35 mm in diameter) at a concentration of 6×10^4 cells/3 ml medium.

For `COc1ccc(C(=O)N2CCN(c3ccc4c(c3)CCC(=O)N4)CC2)cc1OC` [Compound 1, 6-[4-(3,4-Dimethoxybenzoyl)-1-piperazinyl]-3,4-dihydrocarbostyril], the “Positive rate (%), anti-CD33 My9” value (HL-60 cells [1]; 1.0 μg/ml) was 90%, the “Positive rate (%), anti-CD33 My9” value (HL-60 cells [1]; 10 μg/ml) was 77% and the “Induction of differentiation promoting effect” value (HL-60 cells [2]) was 322. For the same molecule, the “Deaths till 20 weeks of age” value ([3]; 100 mg/kg/day oral, untreated: two, one and three dead at 17, 18, 19 weeks) was “no death occurred”, the “Animals found dead at 18 weeks of age” value ([3]; 300 mg/kg/day oral, groups of 10) was “two” and the “Life-prolonging effect (in words)” value ([3]; 100 and 300 mg/kg/day oral) was “significant life-prolonging effect”. The “Morphological change, Giemsa staining” value (HL-60 cells [4]) was “differentiation into cells with granule was observed”, the “Differentiation of HL-60 cells into granulocytes (esterase staining)” value (HL-60 cells [4]; naphthol AS-D chloroacetate method) was 70-85% and the activity at 1 µg/mL ([5]; HL-60, 648 h, on day 27, 1.0 μg/ml) was 76 ± 3.8%. For the same molecule, the activity at 10 µg/mL ([5]; HL-60, 648 h, on day 27, 10 μg/ml) was 54 ± 2.6%, the activity at 1 µg/mL ([5]; HL-60, 792 h, on day 33, 1.0 μg/ml) was 0% and the activity at 10 µg/mL ([5]; HL-60, 792 h, on day 33, 10 μg/ml) was 0%. The “Cells with morphological changes induced” value (PC12 cells; 30 μg/ml, day 3) was 30-50 % of the total cell population, the “Formation of nerve fiber-like processes” value (PC12 cells; 30 μg/ml, most prominent with FCS 0.3%, day 3) was “formation of nerve fiber-like processes; also recorded: formation of nerve-like processes is observed” and the “Elongation of the process, combination of Compound 1 and NGF” value (PC12 cells; with NGF, 0.3% FCS, vs Compound 1 or NGF alone) was “promotes elongation of the process as compared with Compound 1 or NGF alone”.
